The results in this text go back to PMC4497560 (Bioorganic & medicinal chemistry letters, 2014).

Assay type in all cases: biochemical
The target of experiment [1] is T1, lymphoid tyrosine phosphatase (LYP) (Homo sapiens, UniProt Q9Y2R2).
T1 sequence (Q9Y2R2 24-289 limits assumed): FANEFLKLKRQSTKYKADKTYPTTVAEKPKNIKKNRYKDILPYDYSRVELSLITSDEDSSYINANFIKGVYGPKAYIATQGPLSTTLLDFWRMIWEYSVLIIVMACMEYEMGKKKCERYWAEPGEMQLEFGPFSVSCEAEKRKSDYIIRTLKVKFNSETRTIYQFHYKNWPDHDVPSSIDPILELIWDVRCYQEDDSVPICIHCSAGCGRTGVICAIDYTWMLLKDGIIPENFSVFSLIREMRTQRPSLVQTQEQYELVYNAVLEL
Description: LYP enzymatic activity assay, chelator fragments with and without zinc acetate. The settings on record: for Time dependence of LYP inhibition: incubation 0, 30, 60, 120 min; for Effect on LYP enzymatic activity alone: chelator alone, no added zinc; for Chelator concentration sufficient to restore LYP activity: two equiv.

Experiment [2] concerns PTP1B. Description: Inhibition of PTP1B by compound 1h. The following applies: Figure 6.
Experiment [3] has as its system CD45. Kind of experiment: Inhibition of CD45 by compound 1h. The settings on record: Figure 6.
Experiment [4] deals with YopH.
Setting [5] is: in the presence of 40 μM zinc acetate.

With `O=C1C=Cc2ccccc2C1=O` [1,2-naphthoquinone, reference compound], the “Time dependence of LYP inhibition” value in experiment [1] is “time-dependent manner”.
With `Oc1ccc2ccccc2c1O` [Compound 1h, 1,2-dihydroxynaphthalene], in experiment [1], the “Time dependence of LYP inhibition” value is on record as “time-dependent inhibitor”. Moreover, the “Selectivity for LYP over PTP1B” value in experiment [2] is “modest selectivity”. In addition, the “Selectivity for LYP over CD45” value in experiment [3] is “modest selectivity”. Also, the “Selectivity for LYP over YopH” value in experiment [4] is reported as “modest selectivity”.
Turning to `c1ccc(CNCc2ccccn2)nc1` [Compound 3g, di-(2-picolyl)-amine], the “Effect on LYP enzymatic activity alone” value in experiment [1] was “little effect”. Further, in experiment [1] (setting [5]), the “Rescue of LYP from zinc-mediated inhibition” value is on record as “capable of rescuing the enzyme from zinc-mediated inhibition” and the “Chelator concentration sufficient to restore LYP activity” value amounted to 80 µM.
`O=C1C=C(O)C(=O)c2ccccc21` [Compound 5g, 2-hydroxy-1,4-naphthoquinone]: the “Inhibition of LYP in the presence of zinc” value in experiment [1] (5 μM zinc acetate, follow-up studies) is given as “consistent concentration-dependent inhibition”. In experiment [1] (absence of zinc, 0 min incubation), the “Inhibition of LYP at the initial time point” value is listed as “essentially no inhibition”. In experiment [1] (in the presence of zinc (Figure S2)), the “Combined effect with zinc on LYP inhibition” value is recorded as “additive effect”. Moreover, the “Time dependence of LYP inhibition” value in experiment [1] was “time- dependent inhibition”.
In the case of `O=C(O)c1cccc(C(=O)O)n1` [Compound 8a, 2,6-pyridine dicarboxylic acid], the “Effect on LYP enzymatic activity alone” value in experiment [1] is on record as “little effect”. Besides, in experiment [1] (setting [5]), the “Chelator equivalents (relative to zinc) required to restore LYP activity” value is reported as “slightly more than two equiv” and the “Rescue of LYP from zinc-mediated inhibition” value is reported as “capable of rescuing the enzyme from zinc-mediated inhibition”.
As to `Oc1ccc(Cl)c2cccnc12` [Compound 12b, 5-chloro-8-quinolol], the “Effect on LYP enzymatic activity alone” value in experiment [1] is on record as “little effect”. For the same compound, in experiment [1] (setting [5]), the “Rescue of LYP from zinc-mediated inhibition” value was “capable of rescuing the enzyme from zinc-mediated inhibition” and the “Chelator concentration sufficient to restore LYP activity” value was found to be 80 µM.
For `CC(=O)[O-].CC(=O)[O-].[Zn+2]` [zinc acetate, reference compound], in experiment [1] (100 μM zinc(II) acetate, standard assay conditions), the “Inhibition of LYP” value is “complete inhibition”. Besides, the “LYP activity, % of the control” value in experiment [1] (at 5 μM zinc acetate) came out at 80%; in experiment [1] (setting [5]), 20%.
